Assay results as given in ChEMBL document CHEMBL1201861, “Genomics of Drug Sensitity in Cancer screening data, Wellcome Trust Sanger Institute”.

What was measured:
Experiment in all cases: cells
Format in all cases: functional, cell-based, Homo sapiens
[1] = system: CTV-1; conditions: ctv-1;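 note: growth inhibition of the cell line, read out with a cell viability assay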
Description: SANGER: Inhibition of human CTV-1 cell growth in a cell viability assay.

[2] = system: CW-2; conditions: cw-2;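 note: growth inhibition of CW-2 cells, read out by a cell viability assay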
Description: SANGER: Inhibition of human CW-2 cell growth in a cell viability assay.

[3] = system: D-263MG; conditions: d-263mg
Description: SANGER: Inhibition of human D-263MG cell growth in a cell viability assay.

[4] = system: D-392MG; conditions: d-392mg
[5] = system: DEL; conditions: del;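 note: growth inhibition of the human DEL cell line, read out with a cell viability assay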
Description: SANGER: Inhibition of human DEL cell growth in a cell viability assay.

[6] = system: DMS-79; conditions: dms-79;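 note: growth inhibition measured with a cell viability assay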
Description: SANGER: Inhibition of human DMS-79 cell growth in a cell viability assay.

[7] = system: EKVX; conditions: ekvx;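 note: growth inhibition of human EKVX cells, read out with a cell viability assay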
Description: SANGER: Inhibition of human EKVX cell growth in a cell viability assay.

[8] = system: EW-1; conditions: ew-1;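 note: growth inhibition of the human EW-1 cell line, read out by a cell viability assay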
Description: SANGER: Inhibition of human EW-1 cell growth in a cell viability assay.

[9] = system: EW-13; conditions: ew-13;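 note: growth inhibition of EW-13 cells, read out with a cell viability assay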
Description: SANGER: Inhibition of human EW-13 cell growth in a cell viability assay.

[10] = system: EOL1; conditions: eol1;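 note: growth inhibition of EoL-1 cells, read out by a cell viability assay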
Description: SANGER: Inhibition of human EoL-1-cell cell growth in a cell viability assay.

[11] = system: GI-ME-N; conditions: gi-me-n;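 note: growth inhibition of human GI-ME-N cells, read out with a cell viability assay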
Description: SANGER: Inhibition of human GI-ME-N cell growth in a cell viability assay.

[12] = system: GT3TKB; conditions: gt3tkb;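 note: growth inhibition of the cell line, read out with a cell viability assay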
Description: SANGER: Inhibition of human GT3TKB cell growth in a cell viability assay.

[13] = system: HOP-62; conditions: hop-62;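 note: cell growth inhibition determined with a viability assay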
Description: SANGER: Inhibition of human HOP-62 cell growth in a cell viability assay.

[14] = system: HT-144; conditions: ht-144
Description: SANGER: Inhibition of human HT-144 cell growth in a cell viability assay.

[15] = system: IST-MES1; conditions: ist-mes1;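 note: growth inhibition of IST-MES1 cells, measured with a cell viability assay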
Description: SANGER: Inhibition of human IST-MES1 cell growth in a cell viability assay.

[16] = system: J-RT3-T3-5; conditions: j-rt3-t3-5;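 note: cell viability assay measuring growth inhibition of human J-RT3-T3-5 cells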
Description: SANGER: Inhibition of human J-RT3-T3-5 cell growth in a cell viability assay.

[17] = system: KG-1; conditions: kg-1;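 note: growth inhibition of KG-1 cells, read out by a cell viability assay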
Description: SANGER: Inhibition of human KG-1 cell growth in a cell viability assay.

[18] = system: KINGS-1; conditions: kings-1;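 note: cell viability assay measuring suppression of KINGS-1 cell growth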
Description: SANGER: Inhibition of human KINGS-1 cell growth in a cell viability assay.

[19] = system: KMOE-2; conditions: kmoe-2;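 note: growth inhibition of human KMOE-2 cells, read out with a cell viability assay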
Description: SANGER: Inhibition of human KMOE-2 cell growth in a cell viability assay.

[20] = system: KURAMOCHI; conditions: kuramochi;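 note: growth inhibition of KURAMOCHI cells, read out with a cell viability assay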
Description: SANGER: Inhibition of human KURAMOCHI cell growth in a cell viability assay.

[21] = system: LAMA-84; conditions: lama-84;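 note: growth inhibition of LAMA-84 cells, read out with a cell viability assay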
Description: SANGER: Inhibition of human LAMA-84 cell growth in a cell viability assay.

[22] = system: LB373-MEL-D; conditions: lb373-mel-d;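 note: growth inhibition of the cell line, read out in a cell viability assay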
Description: SANGER: Inhibition of human LB373-MEL-D cell growth in a cell viability assay.

[23] = system: LXF-289 cell line; conditions: lxf-289
Description: SANGER: Inhibition of human LXF-289 cell growth in a cell viability assay.

[24] = system: MFM-223; conditions: mfm-223
Description: SANGER: Inhibition of human MFM-223 cell growth in a cell viability assay.

[25] = system: MHH-PREB-1; conditions: mhh-preb-1;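 note: cell viability assay measuring inhibition of proliferation of human MHH-PREB-1 cells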
Description: SANGER: Inhibition of human MHH-PREB-1 cell growth in a cell viability assay.

[26] = system: MLMA; conditions: mlma;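 note: growth inhibition of MLMA cells (human), determined through a cell viability readout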
Description: SANGER: Inhibition of human MLMA cell growth in a cell viability assay.

[27] = system: MOLT-4; conditions: molt-4;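 note: growth inhibition of MOLT-4 cells, determined with a cell viability readout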
Description: SANGER: Inhibition of human MOLT-4 cell growth in a cell viability assay.

[28] = system: MS-1; conditions: ms-1;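 note: growth inhibition of MS-1 cells, read out by cell viability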
Description: SANGER: Inhibition of human MS-1 cell growth in a cell viability assay.

[29] = system: NB13; conditions: nb13;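 note: cell viability readout measuring growth inhibition of human NB13 cells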
Description: SANGER: Inhibition of human NB13 cell growth in a cell viability assay.

[30] = system: NCI-H1355; conditions: nci-h1355;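 note: growth inhibition of human NCI-H1355 cells, read out by a cell viability assay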
Description: SANGER: Inhibition of human NCI-H1355 cell growth in a cell viability assay.

[31] = system: NCI-H1770; conditions: nci-h1770;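 note: growth inhibition of NCI-H1770 cells determined with a viability readout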
Description: SANGER: Inhibition of human NCI-H1770 cell growth in a cell viability assay.

[32] = system: OCI-AML2; conditions: oci-aml2;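 note: growth inhibition of OCI-AML2 cells, read out with a cell viability assay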
Description: SANGER: Inhibition of human OCI-AML2 cell growth in a cell viability assay.

[33] = system: OS-RC-2; conditions: os-rc-2;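 note: growth inhibition of human OS-RC-2 cells, measured by a cell viability assay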
Description: SANGER: Inhibition of human OS-RC-2 cell growth in a cell viability assay.

[34] = system: PSN1; conditions: psn1;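 note: suppression of growth of human PSN1 cells, read out by a cell viability assay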
Description: SANGER: Inhibition of human PSN1 cell growth in a cell viability assay.

[35] = system: QIMR-WIL; conditions: qimr-wil;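 note: growth inhibition of QIMR-WIL cells, read out with a cell viability assay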
Description: SANGER: Inhibition of human QIMR-WIL cell growth in a cell viability assay.

[36] = system: RKO; conditions: rko;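 note: growth inhibition of human RKO cells, read out with a cell viability assay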
Description: SANGER: Inhibition of human RKO cell growth in a cell viability assay.

[37] = system: RPMI-8226; conditions: rpmi-8226
Description: SANGER: Inhibition of human RPMI-8226 cell growth in a cell viability assay.

[38] = system: SCC-15; conditions: scc-15;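 note: growth inhibition of SCC-15 cells, read out with a cell viability assay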
Description: SANGER: Inhibition of human SCC-15 cell growth in a cell viability assay.

[39] = system: SK-LMS-1; conditions: sk-lms-1;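 note: growth inhibition of human SK-LMS-1 cells, read out with a cell viability assay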
Description: SANGER: Inhibition of human SK-LMS-1 cell growth in a cell viability assay.

[40] = system: SK-NEP-1; conditions: sk-nep-1;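 note: growth inhibition of human SK-NEP-1 cells, read out by a cell viability assay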
Description: SANGER: Inhibition of human SK-NEP-1 cell growth in a cell viability assay.

[41] = system: SNU-C2B; conditions: snu-c2b;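 note: cell viability readout used to measure compound-driven suppression of SNU-C2B cell proliferation, IC50 marking half-maximal growth inhibition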
Description: SANGER: Inhibition of human SNU-C2B cell growth in a cell viability assay.

[42] = system: SW 962; conditions: sw 962;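 note: growth inhibition of human SW962 cells, read out by a cell viability assay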
Description: SANGER: Inhibition of human SW962 cell growth in a cell viability assay.

[43] = system: SW982; conditions: sw982;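 note: growth inhibition of SW982 cells, read out with a cell viability assay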
Description: SANGER: Inhibition of human SW982 cell growth in a cell viability assay.

[44] = system: A101D; conditions: a101d;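 note: growth inhibition of the cell line, measured with a viability assay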
Description: SANGER: Inhibition of human A101D cell growth in a cell viability assay.

[45] = system: A704; conditions: a704;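 note: growth inhibition of human A704 cells, read out with a cell viability assay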
Description: SANGER: Inhibition of human A704 cell growth in a cell viability assay.

[46] = system: BB65-RCC; conditions: bb65-rcc;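 note: growth inhibition of the cell line, measured with a cell viability assay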
Description: SANGER: Inhibition of human BB65-RCC cell growth in a cell viability assay.

[47] = system: BT-474; conditions: bt-474
Description: SANGER: Inhibition of human BT-474 cell growth in a cell viability assay.

[48] = system: Becker; conditions: becker;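 note: growth inhibition of Becker cells, read out with a cell viability assay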
Description: SANGER: Inhibition of human Becker cell growth in a cell viability assay.

[49] = system: TE-6; conditions: te-6;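 note: growth inhibition of TE-6 cells, read out with a cell viability assay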
Description: SANGER: Inhibition of human TE-6 cell growth in a cell viability assay.

## BLEOMYCIN
[1]
  IC50: 4.92 µM
[2]
  IC50: 564 µM
[3]
  IC50: 142 µM
[4]
  IC50: 13.6 µM
[5]
  IC50: 480 nM
[6]
  IC50: 325 µM
[7]
  IC50: 413 µM
[8]
  IC50: 1.82 µM
[9]
  IC50: 292 nM
[10]
  IC50: 2.42 µM
[11]
  IC50: 0.441 µM
[12]
  IC50: 6.85 nM
[13]
  IC50: 0.00413 µM
[14]
  IC50: 55.1 nM
[15]
  IC50: 206 µM
[16]
  IC50: 0.712 µM
[17]
  IC50: 131 nM
[18]
  IC50: 1270 µM
[19]
  IC50: 544 µM
[20]
  IC50: 2.04 µM
[21]
  IC50: 4.29 µM
[22]
  IC50: 56.4 µM
[23]
  IC50: 0.644 µM
[24]
  IC50: 11 mM
[25]
  IC50: 836 µM
[26]
  IC50: 0.87 µM
[27]
  IC50: 1.77 µM
[28]
  IC50: 156 µM
[29]
  IC50: 36.7 µM
[30]
  IC50: 8.2 µM
[31]
  IC50: 5.29 µM
[32]
  IC50: 2.26 µM
[33]
  IC50: 3.02 µM
[34]
  IC50: 139 nM
[35]
  IC50: 0.637 µM
[36]
  IC50: 0.524 µM
[37]
  IC50: 906 µM
[38]
  IC50: 27.6 µM
[39]
  IC50: 2.66 µM
[40]
  IC50: 31.9 µM
[41]
  IC50: 2.32 µM
[42]
  IC50: 1.95 µM
[43]
  IC50: 0.417 µM
[44]
  IC50: 0.62 µM
[45]
  IC50: 10.6 µM
[46]
  IC50: 21.4 µM
[47]
  IC50: 2.08 mM
[48]
  IC50: 26.9 µM
[49]
  IC50: 12.4 µM

## CISPLATIN
[1]
  IC50: 34 µM
[2]
  IC50: 24.5 µM
[3]
  IC50: 6.66 µM
[4]
  IC50: 11.9 µM
[5]
  IC50: 3670 nM
[6]
  IC50: 24.4 µM
[7]
  IC50: 485 µM
[8]
  IC50: 8.48 µM
[9]
  IC50: 4170 nM
[10]
  IC50: 38 µM
[11]
  IC50: 11 µM
[12]
  IC50: 3920 nM
[13]
  IC50: 659 µM
[14]
  IC50: 3580 nM
[15]
  IC50: 19.7 µM
[16]
  IC50: 148 µM
[17]
  IC50: 3630 nM
[18]
  IC50: 42.8 µM
[19]
  IC50: 25.2 µM
[20]
  IC50: 159 µM
[21]
  IC50: 10.8 µM
[22]
  IC50: 11 µM
[23]
  IC50: 52.7 µM
[24]
  IC50: 0.615 mM
[25]
  IC50: 23.8 µM
[26]
  IC50: 19.2 µM
[27]
  IC50: 88.8 µM
[28]
  IC50: 14.1 µM
[29]
  IC50: 40.1 µM
[30]
  IC50: 6.63 µM
[31]
  IC50: 417 µM
[32]
  IC50: 15.3 µM
[33]
  IC50: 3.87 µM
[34]
  IC50: 1680 nM
[35]
  IC50: 29.3 µM
[36]
  IC50: 66.8 µM
[37]
  IC50: 192 µM
[38]
  IC50: 28.9 µM
[39]
  IC50: 814 µM
[40]
  IC50: 7.18 µM
[41]
  IC50: 38.4 µM
[42]
  IC50: 64.6 µM
[43]
  IC50: 23.1 µM
[44]
  IC50: 21.7 µM
[45]
  IC50: 115 µM
[46]
  IC50: 2.82 µM
[47]
  IC50: 1.1 mM
[48]
  IC50: 17.8 µM
[49]
  IC50: 57.3 µM
